What all share (assay type): in vivo
Data set [1] concerns Yellow Fever Mosquito "YFM" (Aedes aegypti). The settings on record: about 1 day-old larvae, 96-well plate, room temperature, 3 days, mortality. The method, then: Certain molecules disclosed in this document were tested against YFM using procedures described in the following paragraph. In the reporting of the results, the “YFM Rating Table” was used (See Table Section).
Master plates containing 400 μg of a molecule dissolved in 100 μL of dimethyl sulfoxide (DMSO) (equivalent to a 4000 ppm solution) are used. A master plate of assembled molecules contains 15 μL per well. To this plate, 135 μL of a 90:10 wateracetone mixture is added to each well. A robot (Biomek® NXP Laboratory Automation Workstation) is programmed to dispense 15 μL aspirations from the master plate into an empty 96-well shallow plate (“daughter” plate). There are 6 reps (“daughter” plates) created per master. The created daughter plates are then immediately infested with YFM larvae.
The day before plates are to be treated, mosquito eggs are placed in Millipore water containing liver powder to begin hatching (4 g. into 400 mL). After the daughter plates are created using the robot, they are infested with 220 μL of the liver powder/larval mosquito mixture (about 1 day-old larvae). After plates are infested with mosquito larvae, a non-evaporative lid is used to cover the plate to reduce drying. Plates are held at room temperature for 3 days prior to grading. After 3 days, each well is observed and scored based on mortality.

The test system of data set [2] is Cabbage Looper (Trichoplusia ni) ("CL"). Kind of data set: Bioassay on cabbage looper (CL), 128-well diet tray assay. The conditions noted are these: 168 h, 50 μg/cm^2 on artificial diet, second instar CL larvae, 25° C., five to seven days, average of eight wells, read-out: CL % Control (or Mortality) rating. An outline of the steps: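 Second-instar larvae (one to five per well) placed on artificial diet surface-treated with 50 μg/cm^2 compound in 90:10 acetone-water, dried before infestation. Held 25 °C, 14:10 light-dark for five to seven days; percent mortality scored per well and averaged over eight wells.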

For data set [3], the system named is Beet Armyworm (Spodoptera exigua) ("BAW"). Kind of data set: Bioassay on beet armyworm (BAW), 128-well diet tray assay. The settings on record: 168 h, 50 μg/cm^2 on artificial diet, second instar BAW larvae, 25° C., five to seven days, average of eight wells, read-out: BAW % Control (or Mortality) rating. In a few lines:
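Second-instar larvae (one to five per well) were placed on artificial diet surface-treated with 50 μg/cm^2 compound applied in 90:10 acetone-water and dried, eight wells per compound. Held at 25° C., 14:10 light-dark for five to seven days; percent mortality was scored per well and averaged over the eight wells.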

The structures appear in SMILES notation.

We go through 17 molecules from patent US9783532B2, “Molecules having certain pesticidal utilities, and intermediates, compositions, and processes related thereto” (Dow AgroSciences LLC, priority 2013, dated 2017).

In the case of `CCc1cc(C)ccc1N1C(=O)CS/C1=N\C(=O)NCCc1ccc(-c2ncn(-c3ccc(OC(F)(F)F)cc3)n2)cc1` [P31, (Z)-1-(3-(2-ethyl-4-methylphenyl)-4-oxothiazolidin-2-ylidene)-3-(4-(1-(4-(trifluoromethoxy)phenyl)-1H-1,2,4-triazol-3-yl)phenethyl)urea], the “YFM % Control (or Mortality) rating” value in data set [1] is recorded as “A (80-100)”. In addition, the mortality at 50 µg/cm2 in data set [2] and in data set [3] was 50 to 100% throughout.
On to `CC(Cc1ccc(-c2ncn(-c3ccc(OC(F)(F)F)cc3)n2)cc1)NC(=O)/N=C1\SCC(=O)N1c1ccc(F)cc1C(C)C` (stereo not drawn) [P33, (Z)-1-(3-(4-fluoro-2-isopropylphenyl)-4-oxothiazolidin-2-ylidene)-3-(1-(4-(1-(4-(trifluoromethoxy)phenyl)-1H-1,2,4-triazol-3-yl)phenyl)propan-2-yl)urea], for which the “YFM % Control (or Mortality) rating” value in data set [1] is reported as “A (80-100)”. In addition, the mortality at 50 µg/cm2 in data set [2] and in data set [3] was 50 to 100% throughout.
`CCc1cccc(C)c1N1C(=O)CS/C1=N\C(=O)NC(C)Cc1ccc(-c2ncn(-c3ccc(OC(F)(F)F)cc3)n2)cc1` (stereo not drawn) [P42, (Z)-1-(3-(2-ethyl-1-methylphenyl)-4-oxothiazolidin-2-ylidene)-3-(1-(4-(1-(4-(trifluoromethoxy)phenyl)-1H-1,2,4-triazol-3-yl)phenyl)propan-2-yl)urea]: the “YFM % Control (or Mortality) rating” value in data set [1] was “A (80-100)”. For the same molecule, the mortality at 50 µg/cm2 in data set [2] and in data set [3] was 50 to 100% in each case.
Turning to `COc1ccc(N2C(=O)CS/C2=N\C(=O)NC(C)Cc2ccc(-c3ncn(-c4ccc(OC(F)(F)F)cc4)n3)cc2)c(C)c1` (stereo not drawn) [P45, (Z)-1-(3-(4-methoxy-2-methylphenyl)-4-oxothiazolidin-2-ylidene)-3-(1-(4-(1-(4-(trifluoromethoxy)phenyl)-1H-1,2,4-triazol-3-yl)phenyl)propan-2-yl)urea], in data set [1], the “YFM % Control (or Mortality) rating” value is on record as “A (80-100)”. The mortality at 50 µg/cm2 in data set [2] and in data set [3] was 50 to 100% throughout.
On to `COc1cc(C)c(N2C(=O)CS/C2=N\C(=O)NCCc2ccc(-c3ncn(-c4ccc(OC(F)(F)F)cc4)n3)cc2)c(C)c1` [P47, (Z)-1-(3-(4-methoxy-2,6-dimethylphenyl)-4-oxothiazolidin-2-ylidene)-3-(4-(1-(4-(trifluoromethoxy)phenyl)-1H-1,2,4-triazol-3-yl)phenethyl)urea], for which the “YFM % Control (or Mortality) rating” value in data set [1] is “A (80-100)”. Moreover, the mortality at 50 µg/cm2 in data set [2] and in data set [3] was 50 to 100% throughout.
In the case of `CCc1ccc(C)cc1N1C(=O)CS/C1=N\C(=O)NCCc1ccc(-c2ncn(-c3ccc(OC(F)(F)F)cc3)n2)cc1` [P49, (Z)-1-(3-(2-ethyl-5-methylphenyl)-4-oxothiazolidin-2-ylidene)-3-(4-(1-(4-(trifluoromethoxy)phenyl)-1H-1,2,4-triazol-3-yl)phenethyl)urea], the “YFM % Control (or Mortality) rating” value in data set [1] is reported as “A (80-100)”. The mortality at 50 µg/cm2 in data set [2] and in data set [3] was 50 to 100% each time.
On to `CCc1cccc(C)c1N1C(=O)CS/C1=N\C(=O)NCCc1ccc(-c2ncn(-c3ccc(OC(F)(F)F)cc3)n2)cc1` [P50], for which the “YFM % Control (or Mortality) rating” value in data set [1] was “A (80-100)”. The mortality at 50 µg/cm2 in data set [2] and in data set [3] was 50 to 100% each time.
As to `COc1ccc(C(C)C)c(N2C(=O)CS/C2=N\C(=O)NCCc2ccc(-c3ncn(-c4ccc(C(F)(F)F)cc4)n3)cc2)c1` [P53, (Z)-1-(3-(2-isopropyl-5-methoxyphenyl)-4-oxothiazolidin-2-ylidene)-3-(4-(4-(1-(4-trifluoromethyl)phenyl)-1H-1,2,4-triazol-3-yl)phenethyl)urea], in data set [1], the “YFM % Control (or Mortality) rating” value was “A (80-100)”. Also, the mortality at 50 µg/cm2 in data set [2] and in data set [3] was 50 to 100% each time.
For the molecule `Cc1ccc(C(C)C)c(N2C(=O)C(C)S/C2=N\C(=O)NCCc2ccc(-c3ncn(-c4ccc(OC(F)(F)F)cc4)n3)cc2)c1` (stereo not drawn) [P57, (Z)-1-(3-(2-isopropyl-5-methylphenyl)-5-methyl-4-oxothiazolidin-2-ylidene)-3-(4-(1-(4-(trifluoromethoxy)phenyl)-1H-1,2,4-triazol-3-yl)phenethyl)urea], the “YFM % Control (or Mortality) rating” value in data set [1] is “A (80-100)”. Moreover, the mortality at 50 µg/cm2 in data set [2] and in data set [3] was 50 to 100% each time.
For the molecule `Cc1ccc(C(C)C)c(-n2c(C)cs/c2=N\C(=O)NCCc2ccc(-c3ncn(-c4ccc(OC(F)(F)F)cc4)n3)cc2)c1` [P65, (Z)-1-(3-(2-isopropyl-5-methylphenyl)-4-methylthiazol-2(3H)-ylidene)-3-(4-(1-(4-(trifluoromethoxy)phenyl)-1H-1,2,4-triazol-3-yl)phenethyl)urea], the “YFM % Control (or Mortality) rating” value in data set [1] was “A (80-100)”. Further, the mortality at 50 µg/cm2 in data set [2] and in data set [3] was 50 to 100% throughout.
In the case of `Cc1ccc(C(C)C)c(N2C(=O)CS/C2=N\C(=O)NC(C)C(C)c2ccc(-c3ncn(-c4ccc(OC(F)(F)F)cc4)n3)cc2)c1` (stereo not drawn) [P66, P353, (Z)-1-(3-(2-isopropyl-5-methylphenyl)-4-oxothiazolidin-2-ylidene)-3-(3-(4-(1-(4-(trifluoromethoxy)phenyl)-1H-1,2,4-triazol-3-yl)phenyl)butan-2-yl)urea], the “YFM % Control (or Mortality) rating” value in data set [1] is “A (80-100)”. In addition, the mortality at 50 µg/cm2 in data set [2] and in data set [3] was 50 to 100% throughout.
Take `CCc1cccc(C)c1N1C(=O)CS/C1=N\C(=O)NCCCc1ccc(-c2ncn(-c3ccc(OC(F)(F)F)cc3)n2)cc1` [P101, (Z)-1-(3-(2-ethyl-6-methylphenyl)-4-oxothiazolidin-2-ylidene)-3-(3-(4-(1-(4-(trifluoromethoxy)phenyl)-1H-1,2,4-triazol-3-yl)phenyl)propyl)urea]: the “YFM % Control (or Mortality) rating” value in data set [1] was “D (No activity noticed in this bioassay)”. Also, the mortality at 50 µg/cm2 lay in the range of 50 to 100% in data set [2] and 0 to 50% in data set [3].
As for `Cc1ccccc1N1C(=O)CS/C1=N\C(=O)NCCCCc1ccc(-c2ncn(-c3ccc(OC(F)(F)F)cc3)n2)cc1` [P144, (Z)-1-(4-oxo-3-(o-tolyl)thiazolidin-2-ylidene)-3-(4-(4-(1-(4-(trifluoromethoxy)phenyl)-1H-1,2,4-triazol-3-yl)phenyl)butyl)urea], the “YFM % Control (or Mortality) rating” value in data set [1] was “A (80-100)”. For the same molecule, the mortality at 50 µg/cm2 in data set [2] and in data set [3] was 50 to 100% throughout.
For the molecule `CC(C)c1ccccc1N1C(=O)CS/C1=N\C(=O)NCCCCc1ccc(-c2ncn(-c3ccc(OC(F)(F)F)cc3)n2)cc1` [P146, P208, (Z)-1-(3-(2-isopropylphenyl)-4-oxothiazolidin-2-ylidene)-3-(4-(4-(1-(4-(trifluoromethoxy)phenyl)-1H-1,2,4-triazol-3-yl)phenyl)butyl)urea], in data set [1], the “YFM % Control (or Mortality) rating” value is recorded as “A (80-100)”. Further, the mortality at 50 µg/cm2 in data set [2] and in data set [3] was 50 to 100% in each case.
Take `CCCc1ccc(C)cc1N1C(=O)CS/C1=N\C(=O)NCCCCc1ccc(-c2ncn(-c3ccc(OC(F)(F)F)cc3)n2)cc1` [P151, P842, (Z)-1-(3-(5-methyl-2-propylphenyl)-4-oxothiazolidin-2-ylidene)-3-(4-(4-(1-(4-(trifluoromethoxy)phenyl)-1H-1,2,4-triazol-3-yl)phenyl)butyl)urea]: the “YFM % Control (or Mortality) rating” value in data set [1] was “A (80-100)”. For the same molecule, the mortality at 50 µg/cm2 in data set [2] and in data set [3] was 50 to 100% each time.
For `Cc1cccc(C)c1N1C(=O)CS/C1=N\C(=O)NCCCCc1ccc(-c2ncn(-c3ccc(OC(F)(F)F)cc3)n2)cc1` [P152, P1481, (Z)-1-(3-(2,6-dimethylphenyl)-4-oxothiazolidin-2-ylidene)-3-(4-(4-(1-(4-(trifluoromethoxy)phenyl)-1H-1,2,4-triazol-3-yl)phenyl)butyl)urea], the “YFM % Control (or Mortality) rating” value in data set [1] was “A (80-100)”. Moreover, the results for the mortality at 50 µg/cm2 in data set [2] and in data set [3] were 50 to 100% and 0%, respectively.
Taken in the same sequence, the figures for `CCc1cccc(C)c1N1C(=O)CS/C1=N\C(=O)NCCCCc1ccc(-c2ncn(-c3ccc(OC(F)(F)F)cc3)n2)cc1` [P153, (Z)-1-(3-(2-ethyl-6-methylphenyl)-4-oxothiazolidin-2-ylidene)-3-(4-(4-(1-(4-(trifluoromethoxy)phenyl)-1H-1,2,4-triazol-3-yl)phenyl)butyl)urea] were “D (No activity noticed in this bioassay)”, 50 to 100% and 0%.
